# Laboratory results published in ChEMBL document CHEMBL3885861, “Open TG-GATES”.
# Species on record: Rattus norvegicus
# Experiment: Open TG-GATES - Regimen: Single
# Type: toxicity, organism-based, Sprague-Dawley
# Design: regimen Single, gender Male, age 6 weeks
# Details: in vivo, po, route gavage; for AST / BUN / CRE / Ca / Cl / DBIL / GLC / IP / K / LDH / Na / PL / RALB / TBIL / TC / TG / TP / gamma-GTP / A/G / ALP / ALT: tissue Plasma; for APTT / Bas / Eos / Fbg / Hb / Ht / Lym / MCH / MCHC / MCV / Mono / Neu / PT / Plat / RBC / Ret / WBC: tissue Blood; for KIDNEY_L / KIDNEY_R / KIDNEY_TOTAL: tissue Kidney; for LIVER: tissue Liver
# [1] = 100 mg/kg, 24 h, dose level High
# [2] = 100 mg/kg, 24 h, dose level Low
# [3] = 300 mg/kg, 3 h, dose level Middle
# [4] = 300 mg/kg, 6 h, dose level Middle
structure (smiles),measurement,setting,value
O=C1CN(/N=C/c2ccc([N+](=O)[O-])o2)C(=O)N1 [NITROFURANTOIN],AST,"100 mg/kg, 9 h, dose level Low",66 IU/L
same,BUN,"100 mg/kg, 9 h, dose level Low",14.8 mg/dL
same,CRE,"100 mg/kg, 9 h, dose level Low",0.4 mg/dL
same,Ca,"100 mg/kg, 9 h, dose level Low",11.2 mg/dL
same,Cl,"100 mg/kg, 9 h, dose level Low",105 meq/L
same,DBIL,"100 mg/kg, 9 h, dose level Low",0.01 mg/dL
same,GLC,"100 mg/kg, 9 h, dose level Low",187.2 mg/dL
same,IP,"100 mg/kg, 9 h, dose level Low",7.8 mg/dL
same,K,"100 mg/kg, 9 h, dose level Low",4.8 meq/L
same,LDH,"100 mg/kg, 9 h, dose level Low",62.8 IU/L
same,Na,"100 mg/kg, 9 h, dose level Low",138.2 meq/L
same,PL,"100 mg/kg, 9 h, dose level Low",137.8 mg/dL
same,RALB,"100 mg/kg, 9 h, dose level Low",3.8 g/dL
same,TBIL,"100 mg/kg, 9 h, dose level Low",0.03 mg/dL
same,TC,"100 mg/kg, 9 h, dose level Low",77.8 mg/dL
same,TG,"100 mg/kg, 9 h, dose level Low",91.2 mg/dL
same,TP,"100 mg/kg, 9 h, dose level Low",5.6 g/dL
same,gamma-GTP,"100 mg/kg, 9 h, dose level Low",1 IU/L
same,TERMINAL_BW,[1],237.1 g
same,TERMINAL_BW,[2],213.4 g
same,APTT,[1],18.4 s
same,Bas,[1],0%
same,Eos,[1],1%
same,Fbg,[1],214.8 mg/dL
same,Hb,[1],13.5 g/dL
same,Ht,[1],38.6%
same,Lym,[1],79.6%
same,MCH,[1],22.1 pg
same,MCHC,[1],35.2%
same,MCV,[1],62.9 fL
same,Mono,[1],2.6%
same,Neu,[1],15.2%
same,PT,[1],12.3 s
same,Plat,[1],116.3 x10_4/uL
same,RBC,[1],614.4 x10_4/ul
same,Ret,[1],6.9%
same,WBC,[1],90.9 x10_2/uL
same,APTT,[2],16.1 s
same,Eos,[2],0.8%
same,Fbg,[2],227 mg/dL
same,Hb,[2],13.1 g/dL
same,Ht,[2],40%
same,Lym,[2],74.8%
same,MCH,[2],20.8 pg
same,MCHC,[2],32.7%
same,MCV,[2],63.7 fL
same,Mono,[2],10.2%
same,Neu,[2],14.2%
same,PT,[2],12 s
same,Plat,[2],129.7 x10_4/uL
same,RBC,[2],628.4 x10_4/ul
same,Ret,[2],5.8%
same,WBC,[2],76.3 x10_2/uL
same,KIDNEY_L,[1],1.1 g
same,KIDNEY_R,[1],1.1 g
same,KIDNEY_TOTAL,[1],2.1 g
same,KIDNEY_L,[2],1 g
same,KIDNEY_R,[2],1 g
same,LIVER,[1],12.4 g
same,LIVER,[2],10.4 g
same,A/G,[1],1.6
same,ALP,[1],970.4 IU/L
same,ALT,[1],39.2 IU/L
same,AST,[1],63.4 IU/L
same,BUN,[1],15.8 mg/dL
same,CRE,[1],0.4 mg/dL
same,Ca,[1],10.8 mg/dL
same,Cl,[1],102.4 meq/L
same,DBIL,[1],0.1 mg/dL
same,GLC,[1],219.8 mg/dL
same,IP,[1],7.3 mg/dL
same,K,[1],4.3 meq/L
same,LDH,[1],196.4 IU/L
same,Na,[1],139.6 meq/L
same,PL,[1],159.2 mg/dL
same,RALB,[1],3.3 g/dL
same,TBIL,[1],0.2 mg/dL
same,TC,[1],79.2 mg/dL
same,TG,[1],112.4 mg/dL
same,TP,[1],5.4 g/dL
same,gamma-GTP,[1],0.6 IU/L
same,A/G,[2],2.2
same,ALP,[2],1379.2 IU/L
same,ALT,[2],32.6 IU/L
same,AST,[2],62.6 IU/L
same,BUN,[2],15.4 mg/dL
same,Ca,[2],11.1 mg/dL
same,Cl,[2],105.4 meq/L
same,DBIL,[2],0.01 mg/dL
same,GLC,[2],194.2 mg/dL
same,IP,[2],9.1 mg/dL
same,K,[2],4.7 meq/L
same,LDH,[2],73.4 IU/L
same,Na,[2],141 meq/L
same,PL,[2],150.8 mg/dL
same,RALB,[2],3.8 g/dL
same,TBIL,[2],0.028 mg/dL
same,TC,[2],85.8 mg/dL
same,TG,[2],118.6 mg/dL
same,TP,[2],5.6 g/dL
same,gamma-GTP,[2],0 IU/L
same,TERMINAL_BW,[3],206.1 g
same,APTT,[3],16.4 s
same,Bas,[3],0%
same,Eos,[3],1%
same,Fbg,[3],227.6 mg/dL
same,Hb,[3],13.2 g/dL
same,Ht,[3],40.2%
same,Lym,[3],72.2%
same,MCH,[3],21.2 pg
same,MCHC,[3],32.9%
same,MCV,[3],64.5 fL
same,Mono,[3],5%
same,Neu,[3],21.8%
same,PT,[3],11.9 s
same,Plat,[3],123.8 x10_4/uL
same,RBC,[3],623.2 x10_4/ul
same,Ret,[3],7.6%
same,WBC,[3],84.5 x10_2/uL
same,KIDNEY_L,[3],0.9 g
same,KIDNEY_R,[3],0.9 g
same,KIDNEY_TOTAL,[3],1.8 g
same,LIVER,[3],8.5 g
same,A/G,[3],2.2
same,ALP,[3],1192.4 IU/L
same,ALT,[3],38 IU/L
same,AST,[3],65 IU/L
same,BUN,[3],12.4 mg/dL
same,CRE,[3],0.4 mg/dL
same,Ca,[3],11.5 mg/dL
same,Cl,[3],103 meq/L
same,DBIL,[3],0.004 mg/dL
same,GLC,[3],185.2 mg/dL
same,IP,[3],10.1 mg/dL
same,K,[3],4.2 meq/L
same,LDH,[3],108.2 IU/L
same,Na,[3],138.6 meq/L
same,PL,[3],131.6 mg/dL
same,RALB,[3],4 g/dL
same,TBIL,[3],0.03 mg/dL
same,TC,[3],86.4 mg/dL
same,TG,[3],37.2 mg/dL
same,TP,[3],5.8 g/dL
same,gamma-GTP,[3],1 IU/L
same,TERMINAL_BW,[4],204.8 g
same,APTT,[4],16.7 s
same,Bas,[4],0%
same,Eos,[4],1.4%
